Measured values reported in BindingDB's records for doi:10.1002/cbic.201200279 (University of Southampton, 2012).
Square brackets hold non-standard residues; d marks the D form. Peptide text beside a SMILES is read from it. NMeY = CN[C@@H](Cc1ccc(O)cc1)C(=O)O

What follows are molecules tested against Bifunctional purine biosynthesis protein ATIC (Homo sapiens, UniProt P31939) (assay: Enzyme Inhibition Assay). Conditions: 25 °C.
Text: Enzyme inhibition using aminoimidazole carboxamide ribonucleotide transformylase/inosine monophosphate cyclohydrolase (ATIC).

Sequence of Bifunctional purine biosynthesis protein ATIC (P31939 whole entry): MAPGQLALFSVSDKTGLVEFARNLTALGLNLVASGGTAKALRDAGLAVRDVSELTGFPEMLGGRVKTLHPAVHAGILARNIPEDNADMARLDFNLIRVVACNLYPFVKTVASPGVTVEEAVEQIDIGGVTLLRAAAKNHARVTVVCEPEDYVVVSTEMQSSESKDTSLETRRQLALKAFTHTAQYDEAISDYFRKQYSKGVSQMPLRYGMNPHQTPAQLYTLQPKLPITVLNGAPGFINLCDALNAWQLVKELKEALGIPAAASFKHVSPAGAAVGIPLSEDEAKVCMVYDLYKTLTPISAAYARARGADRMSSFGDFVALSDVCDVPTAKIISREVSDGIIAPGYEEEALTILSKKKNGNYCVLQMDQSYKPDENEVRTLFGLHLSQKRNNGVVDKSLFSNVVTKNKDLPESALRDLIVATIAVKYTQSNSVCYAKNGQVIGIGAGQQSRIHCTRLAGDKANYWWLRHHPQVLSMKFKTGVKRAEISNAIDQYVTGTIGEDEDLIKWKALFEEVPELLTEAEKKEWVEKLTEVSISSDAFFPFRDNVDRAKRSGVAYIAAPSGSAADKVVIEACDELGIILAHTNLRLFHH

Row | SMILES | Ki
1 | CCNC(=O)[C@H](Cc1ccc(O)cc1)NC(=O)[C@H](CCCN=C(N)N)NC(C)=O [RY Analogue, 8] (Ac-Arg-Tyr-NHEt) | 84 µM
2 | CCNC(=O)[C@H](Cc1ccc(OC)cc1)NC(=O)[C@H](CCCN=C(N)N)NC(C)=O [RY Analogue, 11] (Ac-Arg-Tyr(Me)-NHEt) | 87 µM
3 | CCNC(=O)[C@H](Cc1ccc(F)cc1)NC(=O)[C@H](CCCN=C(N)N)NC(C)=O [RY Analogue, 10] | 135 µM
4 | CCNC(=O)[C@H](Cc1ccc(O)cc1)N(C)C(=O)[C@H](CCCN=C(N)N)NC(C)=O [RY Analogue, 16] (Ac-Arg-[NMeY]-NHEt) | 145 µM
5 | CCNC(=O)[C@H](Cc1ccc([N+](=O)[O-])cc1)N(C)C(=O)[C@H](CCCN=C(N)N)NC(C)=O [RY Analogue, 17] | 2.5 µM
6 | CCNC(=O)[C@H](Cc1ccccc1)NC(=O)[C@H](CCCN=C(N)N)NC(C)=O [RY Analogue, 9] | 339 µM
7 | CCNC(=O)[C@H](Cc1ccc(C#N)cc1)NC(=O)[C@H](CCCN=C(N)N)NC(C)=O [RY Analogue, 12] | 56 µM
8 | CCNC(=O)[C@H](Cc1ccc(B(O)O)cc1)NC(=O)[C@H](CCCN=C(N)N)NC(C)=O [RY Analogue, 13] | 59 µM
9 | CCNC(=O)[C@H](Cc1ccc([N+](=O)[O-])cc1)NC(=O)[C@H](CCCN=C(N)N)NC(C)=O [RY Analogue, 14] | 0.685 µM
